Counter-ions that a name gives are not always drawn. Like-named read-outs stand apart in the source and are kept apart here.
Columns and labels:
[1] = target: T1, Ebola L polymerase (Zaire ebolavirus, UniProt Q05318); format: cell-based, Ebola virus; settings: 15 μM
[2] = target: T2, Ebola VP40 protein (Zaire ebolavirus, UniProt Q05128); format: cell-based, Ebola virus
[3] = target: T2, Ebola VP40 protein; format: cell-based, Ebola virus; remark: listed apart in the source
[4] = target: T1, Ebola L polymerase; assay: cell-based; design: species or system Ebola virus
[5] = tested on: EBOV-Mak; assay: microbe, parasite or virus in culture; format: cell-based; settings: Zaire ebolavirus, Huh-7, read-out: IC50, inhibition of Ebola infectivity
[6] = tested on: Huh7 cells; settings: human

T2 sequence (Q05128 whole entry, looked up): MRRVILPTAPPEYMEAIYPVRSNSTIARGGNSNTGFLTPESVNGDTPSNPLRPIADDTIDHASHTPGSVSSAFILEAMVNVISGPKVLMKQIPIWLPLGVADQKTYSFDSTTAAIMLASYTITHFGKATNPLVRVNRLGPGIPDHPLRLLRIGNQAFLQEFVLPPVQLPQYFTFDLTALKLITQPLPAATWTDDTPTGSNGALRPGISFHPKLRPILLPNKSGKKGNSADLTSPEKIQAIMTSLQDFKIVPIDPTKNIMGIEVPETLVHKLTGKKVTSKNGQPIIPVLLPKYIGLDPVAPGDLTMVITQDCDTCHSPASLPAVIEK
T1 sequence (Q05318 whole entry, looked up): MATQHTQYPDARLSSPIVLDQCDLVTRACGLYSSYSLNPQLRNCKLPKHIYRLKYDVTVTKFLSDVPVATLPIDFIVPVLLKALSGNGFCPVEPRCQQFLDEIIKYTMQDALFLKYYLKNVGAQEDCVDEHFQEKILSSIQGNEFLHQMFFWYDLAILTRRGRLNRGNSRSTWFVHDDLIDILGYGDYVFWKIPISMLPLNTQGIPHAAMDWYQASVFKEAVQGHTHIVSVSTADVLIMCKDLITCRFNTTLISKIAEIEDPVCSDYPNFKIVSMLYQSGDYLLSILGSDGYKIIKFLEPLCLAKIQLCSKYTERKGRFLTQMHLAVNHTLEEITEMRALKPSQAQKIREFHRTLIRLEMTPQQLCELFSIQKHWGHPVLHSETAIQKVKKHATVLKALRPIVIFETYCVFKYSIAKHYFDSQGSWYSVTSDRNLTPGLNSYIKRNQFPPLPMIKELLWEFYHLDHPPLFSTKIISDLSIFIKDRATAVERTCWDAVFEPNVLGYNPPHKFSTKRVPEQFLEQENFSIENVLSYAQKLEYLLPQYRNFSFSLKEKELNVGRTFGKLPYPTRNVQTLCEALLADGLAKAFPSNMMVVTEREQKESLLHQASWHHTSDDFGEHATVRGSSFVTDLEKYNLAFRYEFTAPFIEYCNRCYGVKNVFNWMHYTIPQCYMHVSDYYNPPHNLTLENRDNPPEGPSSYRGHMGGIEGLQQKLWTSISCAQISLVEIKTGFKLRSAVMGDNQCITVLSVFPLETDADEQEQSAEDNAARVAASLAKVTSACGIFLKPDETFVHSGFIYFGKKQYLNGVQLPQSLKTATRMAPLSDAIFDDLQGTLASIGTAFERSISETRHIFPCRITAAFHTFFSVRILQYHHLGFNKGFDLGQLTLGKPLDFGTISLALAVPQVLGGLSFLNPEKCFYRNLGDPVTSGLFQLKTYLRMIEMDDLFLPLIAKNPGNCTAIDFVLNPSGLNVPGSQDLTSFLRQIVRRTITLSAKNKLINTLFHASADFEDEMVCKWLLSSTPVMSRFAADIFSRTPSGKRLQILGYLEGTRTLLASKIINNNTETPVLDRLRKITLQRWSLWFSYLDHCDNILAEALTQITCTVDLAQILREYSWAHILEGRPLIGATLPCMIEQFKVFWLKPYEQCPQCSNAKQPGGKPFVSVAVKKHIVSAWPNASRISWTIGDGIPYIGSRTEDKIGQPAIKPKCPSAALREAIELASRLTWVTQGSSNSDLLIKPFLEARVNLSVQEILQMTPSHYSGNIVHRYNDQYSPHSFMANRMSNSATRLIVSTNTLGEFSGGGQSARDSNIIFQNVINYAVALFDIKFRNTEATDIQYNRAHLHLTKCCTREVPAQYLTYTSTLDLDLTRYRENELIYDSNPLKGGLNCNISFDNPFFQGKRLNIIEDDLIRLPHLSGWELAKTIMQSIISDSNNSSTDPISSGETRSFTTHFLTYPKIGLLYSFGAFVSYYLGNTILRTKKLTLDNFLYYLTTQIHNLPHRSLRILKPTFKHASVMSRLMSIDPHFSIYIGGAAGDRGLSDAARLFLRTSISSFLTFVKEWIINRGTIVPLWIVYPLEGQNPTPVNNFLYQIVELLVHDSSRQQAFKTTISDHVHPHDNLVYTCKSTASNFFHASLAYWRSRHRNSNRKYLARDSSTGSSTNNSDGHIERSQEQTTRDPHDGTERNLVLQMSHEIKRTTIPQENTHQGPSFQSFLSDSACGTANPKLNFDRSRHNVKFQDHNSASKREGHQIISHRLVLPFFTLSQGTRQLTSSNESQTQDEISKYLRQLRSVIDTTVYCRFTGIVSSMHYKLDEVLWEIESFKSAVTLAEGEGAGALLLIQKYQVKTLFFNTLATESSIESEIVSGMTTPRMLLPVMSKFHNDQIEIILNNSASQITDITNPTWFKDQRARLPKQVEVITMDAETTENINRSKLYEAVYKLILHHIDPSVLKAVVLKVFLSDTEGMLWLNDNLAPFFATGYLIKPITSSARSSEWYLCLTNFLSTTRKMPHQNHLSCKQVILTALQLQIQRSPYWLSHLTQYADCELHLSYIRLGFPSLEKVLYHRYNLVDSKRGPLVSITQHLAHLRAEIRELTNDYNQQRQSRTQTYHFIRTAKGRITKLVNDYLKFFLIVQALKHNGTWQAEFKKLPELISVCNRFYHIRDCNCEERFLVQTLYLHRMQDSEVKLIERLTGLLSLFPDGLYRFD

| SMILES | % EGFP signal ([1]; hydrochloride) [%] | % mCherry signal ([1]; hydrochloride) [%] | EGFP fluorescent signal, % of solvent control signal, dose-response [2] | concentration at which VLP formation in the cell is prevented (shift in membrane associated VP40) [2] | VLP isolated (western blot for VP40) ([3]; 50 nM) | VLP isolated (western blot for VP40) ([3]; 500 nM) | % EGFP signal [1] [%] | % mCherry signal [1] [%] | IC50 [4] [µM] | IC50 [5] [µM] | 50% cytotoxicity concentration [6] [nM] |
| --- | --- | --- | --- | --- | --- | --- | --- | --- | --- | --- | --- |
| NC(=O)c1cn([C@@H]2O[C@H](CO)[C@@H](O)[C@H]2O)c2ncnc(N)c12 [sangivamycin HCl, 4-amino-7-((2R,3R,4S,5R)-3,4-dihydroxy-5-(hydroxymethyl)tetrahydrofuran-2-yl)-7H-pyrrolo[2,3-d]pyrimidine-5-carboxamide (sangivamycin) hydrochloride] | 20 | 10 |  |  |  |  |  |  |  |  |  |
| NC(=O)c1cn([C@@H]2O[C@H](CO)[C@@H](O)[C@H]2O)c2ncnc(N)c12 [sangivamycin, 4-amino-7-((2R,3R,4S,5R)-3,4-dihydroxy-5-(hydroxymethyl)tetrahydrofuran-2-yl)-7H-pyrrolo[2,3-d]pyrimidine-5-carboxamide] |  |  | largest decrease in signal | above 37.5 nM | clear reduction in VLP | drastic reduction in VLP | 27 | 4 | 0.03 | ~0.1 | > 600 |

Reference: patent US11617753B2 (priority 2016, dated 2023)
